# Key:
# NT5C2 = NT5C2 (Homo sapiens, UniProt P49902, R367Q); experiment: NT5C2 inhibition test (malachite green based assay detecting free inorganic phosphate); type: biochemical
# [1] = Dissolution of compound for NT5C2 inhibition test; type: physicochemical
# [2] = test system: NT5C2 R367Q mutant mouse lymphoblasts; experiment: Cell viability of NT5C2 R367Q mutant mouse lymphoblasts in combination with 6-MP; type: cell-based; details: for synergy with 6-MP to decrease cell viability: combination with 6-mercaptopurine, dose-dependent
# Description: Various embodiments relate to the synthesis and characterization of NT5C2 inhibitors, HTP47 and HTP48, for treatment of chemotherapy resistant T-ALL.
# [drawing 5] • to decrease cell viability of NT5C2 R367Q mutant mouse lymphoblasts. As such, various embodiments may be used in combination with existing chemotherapies to treat T-ALL and relapsed T-ALL.
# Various embodiments relate to ongoing in vitro and in vivo functional characterization and development of optimized inhibitors. […] Control experiment were performed for dose optimization of HTP47 and HTP48 in C2-2 NT5C2 WT mouse lymphoblasts. […] Synthesis reactions for HTP47 and HTP48 are also provided.
# Chain of NT5C2 (P49902 whole entry R367Q): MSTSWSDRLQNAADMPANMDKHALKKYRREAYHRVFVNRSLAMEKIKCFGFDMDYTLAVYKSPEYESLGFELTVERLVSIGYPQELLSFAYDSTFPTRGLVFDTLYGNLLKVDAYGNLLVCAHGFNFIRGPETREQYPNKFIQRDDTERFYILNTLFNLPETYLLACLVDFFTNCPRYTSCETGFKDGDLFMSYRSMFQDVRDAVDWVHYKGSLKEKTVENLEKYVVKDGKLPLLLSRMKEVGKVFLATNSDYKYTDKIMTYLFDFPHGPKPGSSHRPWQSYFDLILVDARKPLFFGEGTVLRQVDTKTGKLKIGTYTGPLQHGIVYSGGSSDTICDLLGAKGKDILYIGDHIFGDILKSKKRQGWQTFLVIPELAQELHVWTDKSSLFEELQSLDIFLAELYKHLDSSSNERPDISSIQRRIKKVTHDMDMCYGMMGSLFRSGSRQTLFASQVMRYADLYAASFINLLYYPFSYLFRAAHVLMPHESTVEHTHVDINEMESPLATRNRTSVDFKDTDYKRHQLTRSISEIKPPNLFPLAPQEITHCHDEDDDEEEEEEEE
Structure (SMILES),NT5C2 inhibitory activity (NT5C2; assay format not given),NT5C2 inhibitory activity (NT5C2; malachite green based assay),further results
CC1(CO)CCN(C(=O)c2c[nH]c(=O)c3ccccc23)CC1 [Formula 35],no NT5C2 inhibition activity,,
CCC1(CC)CCN(C(=O)c2c[nH]c(=O)c3ccccc23)CC1 [Formula 36],no NT5C2 inhibition activity,,
CNC1CCN(C(=O)c2c[nH]c(=O)c3ccccc23)CC1 [Formula 37],no NT5C2 inhibition activity,,
CC(C)CCNC(=O)c1c[nH]c(=O)c2ccccc12 [Formula 38],no NT5C2 inhibition activity was observed,,dissolution [1]: did not dissolve
NCC1CCCN(C(=O)c2c[nH]c(=O)c3ccccc23)C1 (centres unmarked) [Formula 39],no NT5C2 inhibition activity,,

# Now from value to compound, other results behind:
NT5C2 inhibitory activity (NT5C2; assay format not given),NT5C2 inhibitory activity (NT5C2; malachite green based assay),Structure (SMILES),further results
have NT5C2 inhibitory activity,NT5C2 inhibitory activity,NC(=O)c1c(NC(=O)c2ccc3[nH]cnc3c2)sc2c1CCCC2 [HTP2],
have NT5C2 inhibitory activity,,N#Cc1c(NC(=O)c2ccc3[nH]cnc3c2)sc2c1CCCC2 [HTP22],
have NT5C2 inhibitory activity,,NC(=O)c1c(NC(=O)c2ccc3[nH]cnc3c2)sc2c1CCC2 [HTP41],
have NT5C2 inhibitory activity,NT5C2 inhibitory activity,Cc1nc2nc(C(=O)Nc3sc4c(c3C(N)=O)CCCC4)ccc2[nH]1 [HTP47],"potency of 6-MP in combination, comparison of HTP47 and HTP48 ([2]; combination with 6-MP): greater potency of 6-MP in combination with HTP47 compared to HTP48; synergy with 6-MP to decrease cell viability [2]: act synergistically with 6-MP in a dose-dependent manner"
have NT5C2 inhibitory activity,NT5C2 inhibitory activity,Cn1cnc2cc(C(=O)Nc3sc4c(c3C(N)=O)CCCC4)ccc21 [HTP48],synergy with 6-MP to decrease cell viability [2]: act synergistically with 6-MP in a dose-dependent manner

# — patent US12377107B2, “NT5C2 inhibitors for the treatment of chemotherapy-resistant acute lymphoblastic leukemia” (THE TRUSTEES OF COLUMBIA UNIVERSITY IN THE CITY OF NEW YORK, priority 2019, dated 2025)
